In patent publication US20080255121A1, “Combination Drug for Treating Autoimmune Disease” (DAINIPPON SUMITOMO PHARMA CO., LTD., priority 2004, published 2008):

System: adjuvant-induced arthritis rats
Test: Adjuvant-induced arthritis, therapeutic and prophylactic model
Assay type: in vivo, rat
Method: The adjuvant-induced arthritis model is a representative chronic inflammation model caused in rats, and it is widely used for pharmacological evaluation of antiinflammatory drugs and antirheumatic drugs. Accordingly, effects of Compound (I) and Compound (II) were examined in both therapeutic and prophylactic model. In the therapeutic model, the difference of the volume of a hind leg before and after the dosed period was calculated to examine edema suppression effect by the drug administration and the change of edema volume was examined. In the prophylactic model, the volume of a hind paw was measured over time during the dosed period and the effect of the drug for a long term period was examined. Although the hind paw volume or the edema volume was used as the index of efficacy evaluation, the edema volume means the increment from the normal volume of the hind paw which was not sensitized with the adjuvant, and therefore, the both indices can be used as approximately the same meaning.
A liquid paraffin suspension (1 mg/200 μl) of Mycobacterium butyricum (adjuvant) was subcutaneously injected at the tarsal part of the right hind paw of SD or Lewis rats (both male, six-week old) to cause arthritis. In the therapeutic model, 0.5% methylcellulose suspension of Compound (I) or Compound (II) which was prepared so that the dose was 1 ml per 100 g body weight was orally administered once a day for consecutive five days from the 17th day after the injection of the adjuvant. An indomethacin suspension prepared in the similar way was administered as the positive control. The volume of the hind paws was measured respectively for the right and the left by water replacement method just before the administration and in five hours after the last administration and the difference in the values just before the administration and in five hours after the last administration was calculated and assumed as the change in the edema volume. In the prophylatic model, the compounds were administered once a day for consecutive 21 days after the day when the adjuvant was injected. The volume of the right and left hind paws was measured by water replacement method every other day. In the prophylactic model of Compound (II), a suspension of D-penicillamine, an antirheumatic drug, was administered in the same way as a control.

Compound: C[C@@H](c1ccc(-c2ccccc2)c(F)c1)c1cc(/N=C(/N)N2CCOCC2)on1 [Compound (I), 3-[(1S)-1-(2-fluorobiphenyl-4-yl)ethyl]-5-{[amino(morpholin-4-yl)methylene]amino}isoxazole]
- p, left hind paw volume (AUC value), Williams's multiple comparison (prophylactic model, 20 mg/kg): < 0.05
- hind paw volume / edema volume (prophylactic model, oral once a day for 21 days, Compound (I) 2.5 to 80 mg/kg, Compound (II) 50 mg/kg, FIGS. 8 and 9): remarkable edema suppressing effect
- change of edema volume of hind paw (therapeutic model, oral once a day for five days from 17th day, Compound (I) 2.5 to 80 mg/kg, Compound (II) 10 to 50 mg/kg, FIGS. 6 and 7): remarkable edema suppressing effect
